Remaining activity data for 2 molecules are collected here from patent US20070117770A1, “Human ribosomal DNA (rDNA) and ribosomal RNA (rRNA) nucleic acids and uses thereof” (Cylene Pharmaceuticals, Inc., priority 2005, published 2007).

Holding throughout (assay): Protein kinase inhibition assay
Holding throughout (type): biochemical

In one experiment the target is TBK1(h) (Homo sapiens, UniProt Q9UHD2). Particulars: read-out: percent residual activity of TBK1(h). How it is done:
(§1) Certain compounds were tested for activity in protein kinase inhibition assays. All substrates were dissolved and diluted to working stocks in de-ionized water, apart from histone H1 (10× working stock in 20 mM MOPS pH 7.0), PDKtide (10× working stock in 50 mM Tris pH 7.0) ATF2 (which is typically stored at a 20× working stock in 50 mM Tris pH 7.5, 150 mM NaCl, 0.1 mM EGTA, 0.03% Brij-35, 50% glycerol, 1 mM benzamidine, 0.2 mM PMSF and 0.1% R-mercaptoethanol), KKLNRTLSFAEPG (SEQ ID NO:203) and RRRLSFAEPG (SEQ ID NO:204) (50 mM HEPES pH 7.4) and GGEEEEYFELVKKKK (SEQ ID NO:205) (20 mM MOPS pH 7.0). All kinases were pre-diluted to a 10× working concentration prior to addition into the assay. The composition of the dilution buffer for each kinase is detailed below.
(§2) In a final reaction volume of 25 μl, TBK1 (h) (5-10 mU) is incubated with 8 mM MOPS pH 7.0, 0.2 mM EDTA, 200 μM KRRRALS(p)VASLPGL (SEQ ID NO:214), 10 mM MgAcetate and [gamma-33P-ATP] (specific activity approx. 500 cpm/pmol, concentration as required). The reaction is initiated by the addition of the MgATP mix. After incubation for 40 minutes at room temperature, the reaction is stopped by the addition of 5 μl of a 3% phosphoric acid solution. 10 μl of the reaction is then spotted onto a P30 filtermat and washed three times for 5 minutes in 75 mM phosphoric acid and once in methanol prior to drying and scintillation counting.

The next experiment deals with KDR(h) (Homo sapiens, UniProt P35968). Particulars: read-out: percent residual activity of KDR(h). As for the experimental part:
as §1
as §2, with “KDR” for “TBK1”, “0.33 mg/ml myelin basic protein,” for “200 μM KRRRALS(p)VASLPGL (SEQ ID NO:214),”, “[y-33P-ATP]” for “[gamma-33P-ATP]”

Another experiment addresses CDK3/cyclinE(h) (Homo sapiens, UniProt Q00526). Particulars: read-out: percent residual activity of CDK3/cyclinE(h). How it is done: as §1
as §2, with “CDK3/cyclinE” for “TBK1”, “0.1 mg/ml histone H1,” for “200 μM KRRRALS(p)VASLPGL (SEQ ID NO:214),”

The next experiment addresses Bmx(h) (Homo sapiens, UniProt P51813). Particulars: read-out: percent residual activity of Bmx(h). As for the experimental part:
as §1
as §2, with “Bmx” for “TBK1”, “0.1 mg/ml poly(Glu, Tyr) 4:1,” for “200 μM KRRRALS(p)VASLPGL (SEQ ID NO:214),”, “Filtermat A” for “P30 filtermat”

A further experiment addresses PDGFRβ(h) (Homo sapiens, UniProt P09619). Particulars: read-out: percent residual activity of PDGFRβ(h). As for the experimental part: as §1
as §2, with “PDGFRβ” for “TBK1”, “0.1 mg/ml poly(Glu, Tyr) 4:1, 10 mM MnCl2,” for “200 μM KRRRALS(p)VASLPGL (SEQ ID NO:214),”, “Filtermat A” for “P30 filtermat”

For a further experiment, the target named is Axl(h) (Homo sapiens, UniProt P30530). To be noted: read-out: percent residual activity of Axl(h). How it is done:
as §1
as §2, with “Axl” for “TBK1”, “250” for “200”, “KKSRGDYMTMQIG” for “KRRRALS(p)VASLPGL”, “NO:210),” for “NO:214),”, “[y-33P-ATP]” for “[gamma-33P-ATP]”

Structures are written as SMILES.

Axl(h), sequence (P30530 26-894): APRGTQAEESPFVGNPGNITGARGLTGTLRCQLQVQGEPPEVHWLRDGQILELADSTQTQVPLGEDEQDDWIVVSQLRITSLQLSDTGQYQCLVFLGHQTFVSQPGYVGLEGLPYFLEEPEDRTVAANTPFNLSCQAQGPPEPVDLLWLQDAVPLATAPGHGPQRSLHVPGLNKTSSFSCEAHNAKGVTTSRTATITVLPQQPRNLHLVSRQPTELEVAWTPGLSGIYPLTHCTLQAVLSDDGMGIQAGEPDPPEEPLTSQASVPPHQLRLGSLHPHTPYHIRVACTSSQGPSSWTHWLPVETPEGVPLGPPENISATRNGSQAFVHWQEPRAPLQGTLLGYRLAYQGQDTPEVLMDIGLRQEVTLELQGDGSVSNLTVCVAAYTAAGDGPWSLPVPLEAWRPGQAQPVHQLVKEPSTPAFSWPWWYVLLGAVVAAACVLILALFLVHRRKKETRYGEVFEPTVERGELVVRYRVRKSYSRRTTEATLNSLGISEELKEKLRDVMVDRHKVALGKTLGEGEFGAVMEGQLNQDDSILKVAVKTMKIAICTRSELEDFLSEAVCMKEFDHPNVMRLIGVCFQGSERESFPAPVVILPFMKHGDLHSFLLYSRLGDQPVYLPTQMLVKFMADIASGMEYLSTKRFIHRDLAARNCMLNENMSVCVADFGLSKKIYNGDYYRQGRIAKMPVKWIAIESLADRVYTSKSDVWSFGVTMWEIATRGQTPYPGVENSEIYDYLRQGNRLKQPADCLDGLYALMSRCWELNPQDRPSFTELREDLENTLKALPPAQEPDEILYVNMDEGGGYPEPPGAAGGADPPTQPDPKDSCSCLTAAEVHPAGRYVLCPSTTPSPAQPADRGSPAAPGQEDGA
KDR(h), sequence (P35968 20-1356): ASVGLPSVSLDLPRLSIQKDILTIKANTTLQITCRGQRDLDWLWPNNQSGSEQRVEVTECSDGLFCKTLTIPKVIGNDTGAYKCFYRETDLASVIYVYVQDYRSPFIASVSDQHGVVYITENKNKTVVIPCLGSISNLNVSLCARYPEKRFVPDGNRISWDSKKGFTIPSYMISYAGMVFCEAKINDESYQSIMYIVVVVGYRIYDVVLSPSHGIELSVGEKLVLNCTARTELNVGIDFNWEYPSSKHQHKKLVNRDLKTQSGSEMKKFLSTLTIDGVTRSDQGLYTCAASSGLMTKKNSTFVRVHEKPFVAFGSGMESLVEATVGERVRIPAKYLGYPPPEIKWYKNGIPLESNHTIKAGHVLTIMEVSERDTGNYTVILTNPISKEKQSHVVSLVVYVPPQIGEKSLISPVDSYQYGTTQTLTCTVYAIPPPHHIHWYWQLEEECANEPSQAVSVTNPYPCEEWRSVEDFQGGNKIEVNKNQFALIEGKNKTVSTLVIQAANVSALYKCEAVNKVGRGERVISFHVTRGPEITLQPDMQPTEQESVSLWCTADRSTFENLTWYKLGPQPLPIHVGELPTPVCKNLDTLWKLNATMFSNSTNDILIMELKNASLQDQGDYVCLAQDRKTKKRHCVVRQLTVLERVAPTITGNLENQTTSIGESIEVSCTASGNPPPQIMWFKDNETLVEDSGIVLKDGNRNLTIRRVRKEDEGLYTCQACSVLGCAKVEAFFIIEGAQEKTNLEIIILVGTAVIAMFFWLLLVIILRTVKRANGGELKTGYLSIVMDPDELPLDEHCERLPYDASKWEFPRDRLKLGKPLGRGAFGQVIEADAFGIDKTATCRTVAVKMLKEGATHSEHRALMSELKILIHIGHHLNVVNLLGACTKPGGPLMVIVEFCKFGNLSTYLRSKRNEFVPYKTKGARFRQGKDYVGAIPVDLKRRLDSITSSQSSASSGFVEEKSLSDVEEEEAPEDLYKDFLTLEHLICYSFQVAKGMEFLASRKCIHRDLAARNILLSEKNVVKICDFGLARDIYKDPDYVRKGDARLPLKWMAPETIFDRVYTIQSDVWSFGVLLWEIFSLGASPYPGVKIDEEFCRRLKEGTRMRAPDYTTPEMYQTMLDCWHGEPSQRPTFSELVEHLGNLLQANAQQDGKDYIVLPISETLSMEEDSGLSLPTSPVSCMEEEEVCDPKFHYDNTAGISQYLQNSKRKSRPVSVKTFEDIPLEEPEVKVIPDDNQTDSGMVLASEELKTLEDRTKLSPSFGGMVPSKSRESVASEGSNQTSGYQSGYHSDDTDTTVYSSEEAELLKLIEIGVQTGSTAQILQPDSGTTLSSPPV
PDGFRβ(h), sequence (P09619 33-1106): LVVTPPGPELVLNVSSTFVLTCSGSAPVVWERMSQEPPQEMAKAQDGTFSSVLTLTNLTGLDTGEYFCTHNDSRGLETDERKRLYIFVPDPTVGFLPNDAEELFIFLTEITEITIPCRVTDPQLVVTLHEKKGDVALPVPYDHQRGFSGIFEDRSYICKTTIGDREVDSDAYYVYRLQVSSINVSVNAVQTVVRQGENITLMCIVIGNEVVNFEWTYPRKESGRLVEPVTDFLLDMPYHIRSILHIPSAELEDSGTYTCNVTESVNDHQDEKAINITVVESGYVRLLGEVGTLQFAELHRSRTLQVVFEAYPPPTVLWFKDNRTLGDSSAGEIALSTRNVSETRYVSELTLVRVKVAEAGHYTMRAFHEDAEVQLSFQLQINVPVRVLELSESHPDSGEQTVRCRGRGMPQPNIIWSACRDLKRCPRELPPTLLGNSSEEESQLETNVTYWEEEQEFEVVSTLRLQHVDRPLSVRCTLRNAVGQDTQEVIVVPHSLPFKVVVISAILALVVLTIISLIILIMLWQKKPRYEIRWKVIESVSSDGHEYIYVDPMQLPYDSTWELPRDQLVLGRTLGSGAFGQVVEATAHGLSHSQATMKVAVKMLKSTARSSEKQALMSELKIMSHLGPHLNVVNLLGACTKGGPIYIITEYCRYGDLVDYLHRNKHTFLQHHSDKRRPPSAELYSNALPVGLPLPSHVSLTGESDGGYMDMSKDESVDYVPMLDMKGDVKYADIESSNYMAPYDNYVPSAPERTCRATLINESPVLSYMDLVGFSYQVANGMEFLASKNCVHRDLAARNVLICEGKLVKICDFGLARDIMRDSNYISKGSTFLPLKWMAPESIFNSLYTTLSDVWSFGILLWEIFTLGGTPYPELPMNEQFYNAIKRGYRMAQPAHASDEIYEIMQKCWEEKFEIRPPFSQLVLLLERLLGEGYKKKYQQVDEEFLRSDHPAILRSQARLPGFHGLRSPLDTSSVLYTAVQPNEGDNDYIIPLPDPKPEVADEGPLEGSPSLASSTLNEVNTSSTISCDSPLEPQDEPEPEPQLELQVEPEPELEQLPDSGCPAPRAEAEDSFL
TBK1(h), sequence (Q9UHD2 whole entry): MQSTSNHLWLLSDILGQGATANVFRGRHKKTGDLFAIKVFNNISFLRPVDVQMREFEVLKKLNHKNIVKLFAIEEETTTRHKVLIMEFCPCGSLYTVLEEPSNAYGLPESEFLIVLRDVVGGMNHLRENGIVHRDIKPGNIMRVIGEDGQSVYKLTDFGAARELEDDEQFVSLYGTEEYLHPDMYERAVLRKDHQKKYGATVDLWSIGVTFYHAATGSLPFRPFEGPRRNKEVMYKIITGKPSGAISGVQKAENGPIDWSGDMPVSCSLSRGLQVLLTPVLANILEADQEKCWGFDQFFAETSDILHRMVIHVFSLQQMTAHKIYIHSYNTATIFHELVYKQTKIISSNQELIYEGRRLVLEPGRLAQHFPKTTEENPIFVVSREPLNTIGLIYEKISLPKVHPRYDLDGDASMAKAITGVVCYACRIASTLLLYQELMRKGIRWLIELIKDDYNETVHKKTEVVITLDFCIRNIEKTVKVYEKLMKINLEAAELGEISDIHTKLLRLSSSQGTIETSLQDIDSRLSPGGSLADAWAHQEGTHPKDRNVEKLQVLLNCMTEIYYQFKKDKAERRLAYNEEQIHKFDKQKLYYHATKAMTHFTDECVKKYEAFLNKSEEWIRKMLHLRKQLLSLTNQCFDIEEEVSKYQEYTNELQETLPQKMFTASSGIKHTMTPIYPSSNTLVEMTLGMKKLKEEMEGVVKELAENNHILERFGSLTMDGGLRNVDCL
Bmx(h), sequence (P51813 whole entry): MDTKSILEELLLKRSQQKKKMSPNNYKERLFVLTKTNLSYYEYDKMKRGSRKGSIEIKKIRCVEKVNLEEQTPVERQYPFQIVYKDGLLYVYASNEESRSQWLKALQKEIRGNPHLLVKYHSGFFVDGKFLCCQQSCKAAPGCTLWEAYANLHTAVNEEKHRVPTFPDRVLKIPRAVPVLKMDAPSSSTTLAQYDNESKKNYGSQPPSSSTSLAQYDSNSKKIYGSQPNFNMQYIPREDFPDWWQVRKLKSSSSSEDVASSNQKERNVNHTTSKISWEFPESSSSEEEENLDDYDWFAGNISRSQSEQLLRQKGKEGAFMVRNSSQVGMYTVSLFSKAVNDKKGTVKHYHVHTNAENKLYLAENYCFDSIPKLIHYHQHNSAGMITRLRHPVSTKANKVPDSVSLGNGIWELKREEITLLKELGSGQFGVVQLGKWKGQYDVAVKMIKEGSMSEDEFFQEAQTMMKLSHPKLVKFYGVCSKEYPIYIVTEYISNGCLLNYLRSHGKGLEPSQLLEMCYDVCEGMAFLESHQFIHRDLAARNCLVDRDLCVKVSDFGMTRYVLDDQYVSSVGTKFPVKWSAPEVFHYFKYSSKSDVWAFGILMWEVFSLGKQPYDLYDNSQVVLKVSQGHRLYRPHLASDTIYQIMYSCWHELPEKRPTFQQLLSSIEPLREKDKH

Regarding `CN1CCCC1CCNC(=O)c1cn2c3c(c(N4CCC(c5cnccn5)C4)c(F)cc3c1=O)Oc1cc3ccccc3cc1-2` (stereo not drawn) [Compound A-1], the remaining activity at 2.5 µM was found to be 71% on TBK1(h); 90% on KDR(h); 93% at CDK3/cyclinE(h); 68% at Bmx(h); 103% on PDGFRβ(h); 75% at Axl(h).
For `CC(=O)N1CCN(c2ccc3c(=O)c(C(=O)NCCN4CCCC4)c4n(C)c5ccccc5n4c3n2)CC1` [Compound B-1], the remaining activity at 2.5 µM on TBK1(h) was found to be 114%; on KDR(h) it was 95%; at CDK3/cyclinE(h), 103%; at Bmx(h), 105%; on PDGFRβ(h) it was 103%; at Axl(h), 102%.
